Reference: patent US20100184708A1, “USE OF GLY-PRO-GLU-OH (GPE) AS A THERAPEUTIC AGENT” (priority 2007, published 2010)

Tested on: drug-resistant Mycobacterium tuberculosis
Conditions: peptide 10 micrograms per ml, seven days

In the case of `NCC(=O)N1CCC[C@H]1C(=O)N[C@@H](CCC(=O)O)C(=O)O` [IGF-I (1-3), Gly-Pro-Glu-OH], the “% inhibition” value is reported as 0.0%.
